Measured values reported in patent publication US6924366B2, “Recombinant hexose oxidase, a method of producing same and use of such enzyme” (Bioteknologisk Institut, priority 1995, dated 2005).

Experiments:
[1] = target: T1, native hexose oxidase from Chondrus crispus (Chondrus crispus, UniProt P93762); assay: Substrate specificity of native hexose oxidase (o-dianisidine/peroxidase assay); assay type: biochemical; details: sugar at a final concentration of 0.1 M
T1 construct: the native form isolated from Chondrus crispus; from tissue; host or cells: Chondrus crispus (red alga) fronds
T1 sequence (P93762 4-337 limits assumed): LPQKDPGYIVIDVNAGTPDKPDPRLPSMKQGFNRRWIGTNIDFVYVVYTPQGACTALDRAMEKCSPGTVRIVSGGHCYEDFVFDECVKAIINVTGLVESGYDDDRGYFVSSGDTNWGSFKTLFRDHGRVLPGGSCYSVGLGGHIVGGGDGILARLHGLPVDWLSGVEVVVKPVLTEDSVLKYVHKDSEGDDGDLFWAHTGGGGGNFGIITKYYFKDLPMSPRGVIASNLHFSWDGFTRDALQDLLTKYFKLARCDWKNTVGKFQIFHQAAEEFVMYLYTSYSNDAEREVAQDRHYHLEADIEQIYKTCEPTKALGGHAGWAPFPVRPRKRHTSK
T1 sequence (P93762 338-546 limits assumed): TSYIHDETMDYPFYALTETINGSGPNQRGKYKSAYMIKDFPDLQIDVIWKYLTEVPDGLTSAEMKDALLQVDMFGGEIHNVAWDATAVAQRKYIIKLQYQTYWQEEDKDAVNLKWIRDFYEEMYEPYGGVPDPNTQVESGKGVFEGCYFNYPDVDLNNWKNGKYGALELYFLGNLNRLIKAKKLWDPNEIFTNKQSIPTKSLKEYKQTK
Method: (§1) The procedure used was essentially as described by Sullivan and Ikawa, 1973. This assay is based on the principle that the hydrogen peroxide formed in the oxidation of the sugar in the presence of peroxidase reacts with the chromogenic substance, o-dianisidine to form a dye with absorbance at 402 nm.
(§2) The assay mixture consisted of 1-40 μl of enzyme sample and 850 μl of an assay solution containing 370 μl of 0.1 M sodium phosphate buffer, pH 7.0; 462 μl of 0.1 M D-glucose in 0.1 M sodium phosphate buffer, pH 7.0; 9 μl of horse radish peroxidase, 0.1 mg/ml in water (Sigma Chemicals, cat. no. P 6782 or Boehringer Mannheim, cat. no. 814 393); and 9 μl of o-dianisidine.2HCl, 3.0 mg/ml in water (3,3′-dimethoxybenzidine, Sigma Chemicals). After incubation at room temperature for 15 or 30 minutes the assay was stopped by addition of one drop of 37% HCl (Merck, p.a.). Samples of 100 μl were transferred from the assay tubes to the wells of a microtiter plate (NUNC, Denmark) and the absorbance at 410 nm was read on a Titertek Multiskan II PLUS plate reader (Labsystems/Flow Laboratories, Finland). To ensure that the observed activity was due to hexose oxidase—and not glucose oxidase—the assay was occasionally performed with D-galactose as the substrate instead of D-glucose.
(§3) The substrate specificity of recombinant hexose oxidase from Pichia pastoris and native hexose oxidase from Chondrus crispus was compared using a number of sugars at a final concentration of 0.1 M in the assay described above.

[2] = target: T2, recombinant hexose oxidase from Pichia pastoris (Chondrus crispus, UniProt P93762); assay: Substrate specificity of recombinant hexose oxidase (o-dianisidine/peroxidase assay); assay type: biochemical; details: sugar at a final concentration of 0.1 M; recombinant hexose oxidase expressed in Pichia pastoris
T2 construct: the entire hexose oxidase gene was amplified and isolated from at least three independent PCR amplifications; made in house; host or cells: Pichia pastoris KM71 with plasmid pUPO153 (pPIC3 vector), intracellular
T2 sequence (P93762 4-337 limits assumed): T1 sequence (P93762 4-337 limits assumed)
T2 sequence (P93762 338-546 limits assumed): T1 sequence (P93762 338-546 limits assumed)
Method: as §1, §2, §3

[3] = target: T3, native hexose oxidase from Chondrus crispus (Chondrus crispus, UniProt P93762); details: literature data; cited from earlier work
T3 sequence (P93762 1-546): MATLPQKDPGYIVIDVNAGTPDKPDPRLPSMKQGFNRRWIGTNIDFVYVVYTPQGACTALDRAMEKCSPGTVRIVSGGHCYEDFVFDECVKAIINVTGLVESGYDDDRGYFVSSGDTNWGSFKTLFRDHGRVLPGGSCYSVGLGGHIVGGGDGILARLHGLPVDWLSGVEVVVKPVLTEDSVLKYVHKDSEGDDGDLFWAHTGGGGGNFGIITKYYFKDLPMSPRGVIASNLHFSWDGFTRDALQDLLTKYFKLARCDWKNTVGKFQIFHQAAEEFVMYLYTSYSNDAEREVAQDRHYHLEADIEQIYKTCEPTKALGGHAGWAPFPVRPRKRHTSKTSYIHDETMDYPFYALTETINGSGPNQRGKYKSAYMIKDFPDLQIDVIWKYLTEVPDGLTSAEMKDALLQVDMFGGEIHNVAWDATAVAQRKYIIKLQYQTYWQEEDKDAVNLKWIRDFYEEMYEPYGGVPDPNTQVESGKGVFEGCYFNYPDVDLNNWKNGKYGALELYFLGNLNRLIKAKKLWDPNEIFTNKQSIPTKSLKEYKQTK

[4] = target: T2, recombinant hexose oxidase from Pichia pastoris; assay: Inhibition of recombinant hexose oxidase by sodium diethyldithiocarbamate; assay type: biochemical; details: read-out: Inhibition (%), Recombinant enzyme
Method: as §1
as §2, with “D-glucose. […]” for “D-glucose.”

[5] = target: T4, hexose oxidase from Chondrus crispus (Chondrus crispus, UniProt P93762); details: reported by Sullivan and Ikawa (1973); cited from earlier work
T4 sequence (P93762 1-546): T3 sequence (P93762 1-546)

[6] = target: T1, native hexose oxidase from Chondrus crispus; assay: Inhibition of native hexose oxidase by sodium diethyldithiocarbamate; assay type: biochemical; details: read-out: Inhibition (%), Native enzyme
Method: as §1
as §2, with “D-glucose. […]” for “D-glucose.”

O=C[C@H](O)[C@@H](O)[C@H](O[C@@H]1O[C@H](CO)[C@@H](O)[C@H](O)[C@H]1O)[C@H](O)CO [Cellobiose]
Relative rate, native enzyme, this work [1]: 33 | Relative rate, recombinant enzyme [2]: 51 | Relative rate, native enzyme, Sullivan and Ikawa, 1973 [3]: 32

O=C[C@H](O)[C@@H](O)[C@@H](O)[C@H](O)CO [D-Galactose]
Relative rate, native enzyme, this work [1]: 75 | Relative rate, recombinant enzyme [2]: 75 | Relative rate, native enzyme, Sullivan and Ikawa, 1973 [3]: 82

O=C[C@H](O)[C@@H](O)[C@H](O)[C@H](O)CO [D-Glucose]
Relative rate, native enzyme, this work [1]: 100 | Relative rate, recombinant enzyme [2]: 100 | Relative rate, native enzyme, Sullivan and Ikawa, 1973 [3]: 100

OC[C@H]1O[C@@H](O[C@H]2[C@H](O)[C@@H](O)C(O)O[C@@H]2CO)[C@H](O)[C@@H](O)[C@H]1O (some centres unmarked) [Lactose]
Relative rate, native enzyme, this work [1]: 25 | Relative rate, recombinant enzyme [2]: 38 | Relative rate, native enzyme, Sullivan and Ikawa, 1973 [3]: 22

OC[C@H]1O[C@H](O[C@H]2[C@H](O)[C@@H](O)[C@H](O)O[C@@H]2CO)[C@H](O)[C@@H](O)[C@@H]1O [Maltose]
Relative rate, native enzyme, this work [1]: 37 | Relative rate, recombinant enzyme [2]: 57 | Relative rate, native enzyme, Sullivan and Ikawa, 1973 [3]: 40

CCN(CC)C(=S)[S-].[Na+] [sodium diethyldithiocarbamate]
inhibition at 10 µM ([4]; concentration of inhibitor 0.01 mM): 39% | inhibition at 100 µM ([4]; concentration of inhibitor 0.1 mM): 96% | Inhibition of hexose oxidase (in words) [5]: strongly inhibited | inhibition at 10 µM [6]: 41% | inhibition at 100 µM [6]: 95%
